Measurements from patent publication US9394297B2, “Amides as pim inhibitors” (AMGEN INC., priority 2012, dated 2016).
Counter-ions that a name gives are not always drawn. Like-named read-outs stand apart in the source and are kept apart here.

Experiments:
[1] = target: Pim-1 (Homo sapiens (Human), UniProt P11309); test: Pim-Mn enzyme assay (HTRF, 384-well), Pim-1; format: biochemical; details: read-out: Pim-1-Mn IC50 IP
[2] = target: Pim-2 (Homo sapiens (Human), UniProt Q9P1W9); test: Pim-Mn enzyme assay (HTRF, 384-well), Pim-2; format: biochemical; details: read-out: Pim-2-Mn IC50 IP
[3] = tested on: KMS-12-BM cell lines; test: KMS12 #2 flow cytometry assay (phospho-BAD Ser112); format: cell-based; details: Homo sapiens, 110 min; KMS-12-BM cells, pBAD Ser112 by flow cytometry, 110 min with compound; read-out: KMS-12-Flow IC50 IP
[4] = Pim-1 enzyme 5 pM, ATP 1.5 μM, BAD (S112) 0.5 μM, HTRF, 22-point curve
[5] = Pim-2 enzyme 0.5 pM, ATP 1.5 μM, BAD (S112) 0.5 μM, HTRF, 22-point curve

Pim-2, sequence (Q9P1W9 whole entry): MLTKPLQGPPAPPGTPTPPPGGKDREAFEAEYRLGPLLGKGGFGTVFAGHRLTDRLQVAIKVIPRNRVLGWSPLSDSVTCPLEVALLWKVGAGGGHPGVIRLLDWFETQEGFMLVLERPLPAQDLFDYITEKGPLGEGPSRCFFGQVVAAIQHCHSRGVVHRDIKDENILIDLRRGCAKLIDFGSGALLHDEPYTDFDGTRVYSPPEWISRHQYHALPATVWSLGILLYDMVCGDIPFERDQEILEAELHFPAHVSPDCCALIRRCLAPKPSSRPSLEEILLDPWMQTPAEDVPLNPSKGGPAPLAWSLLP
Pim-1, sequence (P11309 whole entry): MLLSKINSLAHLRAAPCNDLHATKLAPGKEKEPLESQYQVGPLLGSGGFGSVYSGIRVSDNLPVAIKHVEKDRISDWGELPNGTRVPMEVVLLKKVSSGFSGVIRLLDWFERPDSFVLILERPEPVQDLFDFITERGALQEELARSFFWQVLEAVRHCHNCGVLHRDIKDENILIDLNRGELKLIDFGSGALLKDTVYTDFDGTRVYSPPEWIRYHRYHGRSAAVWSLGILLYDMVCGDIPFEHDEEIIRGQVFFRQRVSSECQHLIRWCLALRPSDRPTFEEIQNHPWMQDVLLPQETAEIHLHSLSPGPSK

Cc1cccnc1-c1nc2c(-c3cc4c([nH]3)CCNC4=O)cccc2nc1C [Example 430, 2-(2-Methyl-3-(3-methylpyridin-2-yl)quinoxalin-5-yl)-6,7-dihydro-1H-pyrrolo[3,2-c]pyridin-4(5H)-one]
IC50 [1, 4]: 200 nM | IC50 [2, 5]: 257 nM | IC50 [3]: 24800 nM

Cc1nc2ccc(F)c(-c3cc4c([nH]3)[C@@H]([C@H](C)O)NC4=O)c2nc1NC1CC1 [Example 353, (6S)-2-(3-(cyclopropylamino)-6-fluoro-2-methyl-5-quinoxalinyl)-6-((1S)-1-hydroxyethyl)-5,6-dihydropyrrolo[3,4-b]pyrrol-4(1H)-one]
IC50 [1, 4]: 2.26 nM | IC50 [2, 5]: 2.3 nM | IC50 [3]: 109 nM

Cc1nc2cccc(-c3cc4c([nH]3)CCNC4=O)c2nc1-c1nccn1C [Example 432, 2-(2-Methyl-3-(1-methyl-1H-imidazol-2-yl)quinoxalin-5-yl)-6,7-dihydro-1H-pyrrolo[3,2-c]pyridin-4(5H)-one]
IC50 [1, 4]: 413 nM | IC50 [2, 5]: 244 nM | IC50 [3]: > 40000 nM

CC(C)Nc1nc2c(-c3cc4c([nH]3)CCNC4=O)cccc2c(=O)n1-c1cccnc1 [Example 403, 2-((1-methylethyl)amino)-8-(4-oxo-4,5,6,7-tetrahydro-1H-pyrrolo[3,2-c]pyridin-2-yl)-3-(3-pyridinyl)-4(3H)-quinazolinone]
IC50 [1, 4]: 11.5 nM | IC50 [2, 5]: 16.4 nM | IC50 [3]: > 40000 nM

Cc1nc2cccc(-c3cc4c([nH]3)CCNC4=O)c2nc1-c1ccncc1Cl [Example 411, 2-(3-(3-chloro-4-pyridinyl)-2-methyl-5-quinoxalinyl)-1,5,6,7-tetrahydro-4H-pyrrolo[3,2-c]pyridin-4-one]
IC50 [1, 4]: 66.5 nM | IC50 [2, 5]: 239 nM | IC50 [3]: > 40000 nM

C[C@@H](O)c1nc2cccc(-c3cc4c([nH]3)CCNC4=O)c2nc1NC(C)(C)C [Example 311, (R)-2-(3-(tert-butylamino)-2-(1-hydroxyethyl)quinoxalin-5-yl)-6,7-dihydro-1H-pyrrolo[3,2-c]pyridin-4(5H)-one]
IC50 [1, 4]: 1.98 nM | IC50 [2, 5]: 1.95 nM | IC50 [3]: 151 nM

Cc1nc2ccc(F)c(-c3cc4c([nH]3)CCNC4=O)c2nc1NC(C)C [Example 373, 2-(6-fluoro-3-(isopropylamino)-2-methylquinoxalin-5-yl)-6,7-dihydro-1H-pyrrolo[3,2-c]pyridin-4(5H)-one 2,2,2-trifluoroacetate]
IC50 [1, 4]: 1.8 nM | IC50 [2, 5]: 1.63 nM | IC50 [3]: 94.3 nM

Cc1nc2cccc(-c3cc4c([nH]3)CCNC4=O)c2nc1N[C@H]1C[C@@H](NCCS(C)(=O)=O)C1 [Example 441, 2-(2-Methyl-3-((cis-3-((2-(methylsulfonyl)ethyl)amino)cyclobutyl)amino)quinoxalin-5-yl)-6,7-dihydro-1H-pyrrolo[3,2-c]pyridin-4(5H)-one]
IC50 [1, 4]: 0.7 nM | IC50 [2, 5]: 1.3 nM | IC50 [3]: > 40000 nM

Cc1nc2cccc(-c3cc4c([nH]3)CCNC4=O)c2nc1NC(=O)C1CC1 [Example 446, N-(3-methyl-8-(4-oxo-4,5,6,7-tetrahydro-1H-pyrrolo[3,2-c]pyridin-2-yl)quinoxalin-2-yl)cyclopropanecarboxamide]
IC50 [1, 4]: 145 nM | IC50 [2, 5]: 131 nM | IC50 [3]: > 40000 nM

Cc1nc2cccc(-c3cc4n(c3)C(=O)NC4=O)c2nc1NC(C)(C)C [Example 422, 6-(3-(tert-Butylamino)-2-methyl-5-quinoxalinyl)-1H-pyrrolo[1,2-c]imidazole-1,3(2H)-dione]
IC50 [1, 4]: 12.3 nM | IC50 [2, 5]: 37.1 nM | IC50 [3]: 2610 nM

Cc1nc2cccc(-c3cc4c([nH]3)CCNC4=O)c2nc1-c1ccoc1C [Example 433, 2-(2-Methyl-3-(2-methylfuran-3-yl)quinoxalin-5-yl)-6,7-dihydro-1H-pyrrolo[3,2-c]pyridin-4(5H)-one]
IC50 [1, 4]: 30.9 nM | IC50 [2, 5]: 40.9 nM | IC50 [3]: 8400 nM

Cc1nc2cccc(-c3cc4c(n3C)CCNC4=O)c2nc1NC(C)(C)C [Example 314, 2-(3-(tert-butylamino)-2-methylquinoxalin-5-yl)-1-methyl-6,7-dihydro-1H-pyrrolo[3,2-c]pyridin-4(5H)-one]
IC50 [1, 4]: 9.48 nM | IC50 [2, 5]: 8.58 nM | IC50 [3]: 6730 nM

Cc1nc2cccc(-c3cc4c([nH]3)[C@@H](C)NC4=O)c2nc1O[C@@H](C)C(F)(F)F [Example 452, (6R)-6-methyl-2-(2-methyl-3-((1S)-2,2,2-trifluoro-1-methylethoxy)-5-quinoxalinyl)-5,6-dihydropyrrolo[3,4-b]pyrrol-4(1H)-one]
IC50 [1, 4]: 21.6 nM | IC50 [2, 5]: 32.5 nM | IC50 [3]: 3190 nM

Cc1nc2ccc(F)c(-c3cc4c([nH]3)[C@@H](C)NC4=O)c2nc1NC1CC1 [Example 284, (R)-2-(3-(cyclopropylamino)-6-fluoro-2-methylquinoxalin-5-yl)-6-methyl-5,6-dihydropyrrolo[3,4-b]pyrrol-4(1H)-one]
IC50 [1, 4]: 0.0282 nM | IC50 [2, 5]: 0.0378 nM | IC50 [3]: 18.6 nM

Cc1nc2cccc(-c3cc4c([nH]3)CCNC4=O)c2nc1NC(C)c1ccncn1 (stereo not drawn) [Example 323, 2-(2-methyl-3-((1-(pyrimidin-4-yl)ethyl)amino)quinoxalin-5-yl)-6,7-dihydro-1H-pyrrolo[3,2-c]pyridin-4(5H)-one]
IC50 [1, 4]: 83.8 nM | IC50 [2, 5]: 62.7 nM | IC50 [3]: > 20000 nM

C[C@H]1NC(=O)c2cc(-c3cccc4c(=O)[nH]c(NC(C)(C)C)nc34)[nH]c21 [Example 408, 2-(tert-butylamino)-8-((6R)-6-methyl-4-oxo-1,4,5,6-tetrahydropyrrolo[3,4-b]pyrrol-2-yl)-4(3H)-quinazolinone]
IC50 [1, 4]: 0.1 nM | IC50 [2, 5]: 0.24 nM | IC50 [3]: 47 nM

Cc1nc2ccnc(-c3cc4c([nH]3)CCNC4=O)c2nc1NC(C)(C)C [Example 368, 2-(3-(tert-butylamino)-2-methylpyrido[3,4-b]pyrazin-5-yl)-6,7-dihydro-1H-pyrrolo[3,2-c]pyridin-4(5H)-one]
IC50 [1, 4]: 30.8 nM | IC50 [2, 5]: 33.7 nM | IC50 [3]: 13300 nM

CC(C)(C)Nc1nc2c(-c3cc4c([nH]3)CCNC4=O)cccc2nc1F [Example 343, 2-(3-(tert-butylamino)-2-fluoro-5-quinoxalinyl)-1,5,6,7-tetrahydro-4H-pyrrolo[3,2-c]pyridin-4-one]
IC50 [1, 4]: 2.33 nM | IC50 [2, 5]: 2.78 nM | IC50 [3]: 1770 nM

Cc1nc2ccc(F)c(-c3cc4c([nH]3)[C@H](C)NC4=O)c2nc1NC1(C)CC1 [Example 380, (S)-2-(6-fluoro-2-methyl-3-((1-methylcyclopropyl)amino)quinoxalin-5-yl)-6-methyl-5,6-dihydropyrrolo[3,4-b]pyrrol-4(1H)-one]
IC50 [1, 4]: 0.249 nM | IC50 [2, 5]: 0.385 nM | IC50 [3]: 34.7 nM

Cc1nc2cccc(-c3cc4c([nH]3)CCNC4=O)c2nc1NCC(F)(F)F [Example 336, 2-(2-methyl-3-((2,2,2-trifluoroethyl)amino)-5-quinoxalinyl)-1,5,6,7-tetrahydro-4H-pyrrolo[3,2-c]pyridin-4-one]
IC50 [1, 4]: 2.82 nM | IC50 [2, 5]: 1.32 nM | IC50 [3]: 145 nM

CNc1nc2cccc(-c3cc4c([nH]3)CCNC4=O)c2nc1NC(C)(C)C [Example 344, 2-(3-(tert-butylamino)-2-(methylamino)-5-quinoxalinyl)-1,5,6,7-tetrahydro-4H-pyrrolo[3,2-c]pyridin-4-one]
IC50 [1, 4]: 1.19 nM | IC50 [2, 5]: 5.61 nM | IC50 [3]: 202 nM

Cc1nc2cccc(-c3cc4c([nH]3)[C@@H](C)NC4=O)c2nc1NC1(C)CC1 [Example 333, (6R)-6-methyl-2-(2-methyl-3-((1-methylcyclopropyl)amino)-5-quinoxalinyl)-5,6-dihydropyrrolo[3,4-b]pyrrol-4(1H)-one]
IC50 [1, 4]: 0.185 nM | IC50 [2, 5]: 0.183 nM | IC50 [3]: 8.42 nM

Cc1nc2ccc(F)c(-c3cc4c([nH]3)C3(CC3)NC4=O)c2nc1NC1(C)CC1 [Example 378, 2′-(6-fluoro-2-methyl-3-((1-methylcyclopropyl)amino)quinoxalin-5-yl)-1′H-spiro[cyclopropane-1,6′-pyrrolo[3,4-b]pyrrol]-4′(5′H)-one]
IC50 [1]: 0.0295 nM | IC50 [2]: 0.0354 nM | IC50 [3]: 16.1 nM

Cc1nc2ccc(F)c(-c3cc4c(=O)[nH]ccc4[nH]3)c2nc1NC(C)(C)C [Example 371, 2-(3-(tert-butylamino)-6-fluoro-2-methylquinoxalin-5-yl)-1H-pyrrolo[3,2-c]pyridin-4(5H)-one 2,2,2-trifluoroacetate salt]
IC50 [1]: 0.246 nM | IC50 [2]: 0.0667 nM | IC50 [3]: 148 nM

Cc1nc2cccc(-c3cc4c([nH]3)CCNC4=O)c2nc1Cl [Example 425, 2-(3-Chloro-2-methylquinoxalin-5-yl)-6,7-dihydro-1H-pyrrolo[3,2-c]pyridin-4(5H)-one]
IC50 [1, 4]: 392 nM | IC50 [2, 5]: 521 nM | IC50 [3]: > 40000 nM

CC(C)(C)Nc1nc2c(-c3cc4c([nH]3)CCNC4=O)cccc2nc1C#N [Example 309, 3-(tert-butylamino)-5-(4-oxo-4,5,6,7-tetrahydro-1H-pyrrolo[3,2-c]pyridin-2-yl)quinoxaline-2-carbonitrile]
IC50 [1, 4]: 3.55 nM | IC50 [2, 5]: 3.76 nM | IC50 [3]: 1160 nM

Cc1nc2cccc(-c3cc4c([nH]3)C(C)(C)NC4=O)c2nc1NC(C)(C)C [Example 466, 2-(3-(tert-butylamino)-2-methyl-5-quinoxalinyl)-6,6-dimethyl-5,6-dihydropyrrolo[3,4-b]pyrrol-4(1H)-one]
IC50 [1]: 2.28 nM | IC50 [2]: 1.93 nM | IC50 [3]: 75.5 nM

Cc1nc2cccc(-c3cc4c([nH]3)CCNC4=O)c2nc1N1CC(S(C)(=O)=O)C1 [Example 318, 2-(2-methyl-3-(3-(methylsulfonyl)-1-azetidinyl)-5-quinoxalinyl)-1,5,6,7-tetrahydro-4H-pyrrolo[3,2-c]pyridin-4-one]
IC50 [1, 4]: 34.1 nM | IC50 [2, 5]: 26.7 nM | IC50 [3]: > 40000 nM
